This is an account of results in article PMC10304221, “Pharmacokinetic and Biomarker Quantification Studies on Vancomycin-Loaded PEGylated Liposomes and Its Potential to Reduce Vancomycin-Induced Kidney Injury: A Rat Study” (Pharmaceutics, 2023).

Where a name gives a salt, the structure may show the parent alone.

Data set [1] can be described thus: Plasma pharmacokinetics of vancomycin in rats, LC-MS/MS with non-compartmental analysis. The conditions noted are these: rat plasma.
For data set [2] the following is noted: stated in the chemicals section, no method or reference given, cited from earlier work. The procedure:
The 0.9% NaCl (Sing-Tong, Taiwan), Acetonitrile (CAN; Fisher Scientific U.K. Ltd., Loughborough, England), Bupivacaine (Marcaine®; AstraZeneca, Cambridge, UK), formic acid (FA; Merck, Germany), DMSO (Merck, Darmstadt, Germany), Ketalar injection (50 mg/mL; Pfizer, New York, NY, USA), methanol (MeOH; AENCORE, Australia), PBS (Sigma, USA), pentobarbital (Health-Tech Pharmaceutical Co., Ltd., Taiwan), Rompun injection (2%; Bayer, Leverkusen, Germany), and sodium heparin bodene (Pty) (Limited Trading as Intramed, Maharashtra, India). Acetonitrile, chloroform, and methanol VWR International (Radno ...

Where [3] appears, read: day three, 150 mg/kg IV 3 min infusion qd x3, NCA, LC-MS/MS, mean, n = 6.

For `CN[C@H](CC(C)C)C(=O)N[C@H]1C(=O)N[C@@H](CC(N)=O)C(=O)N[C@H]2C(=O)N[C@H]3C(=O)N[C@H](C(=O)N[C@H](C(=O)O)c4cc(O)cc(O)c4-c4cc3ccc4O)[C@H](O)c3ccc(c(Cl)c3)Oc3cc2cc(c3O[C@@H]2O[C@H](CO)[C@@H](O)[C@H](O)[C@H]2O[C@H]2C[C@](C)(N)[C@H](O)[C@H](C)O2)Oc2ccc(cc2Cl)[C@H]1O` [Vancomycin Hydrochloride, Vancomycin hydrochloride], the “Reduction in plasma vancomycin concentration compared to the PEG-VANCO-lipo group” value in data set [1] (day one at 0.5 and 1 h, day three at 1, 2 and 4 h, 150 mg/kg IV qd x3, n = 3, p ≤ 0.05, Tukey's two-way ANOVA) is given as 2–5 fold. In data set [1] (day three, 150 mg/kg IV 3 min infusion qd x3, NCA (WinNonlin), LC-MS/MS, mean, n = 6), this molecule returned a t1/2 of 13.26 h. In data set [1] (setting [3]), the AUCINF is 1461.44 µg·h/mL, the “C0 (initial concentration estimated by back-extrapolation)” value is 186.69 µg/mL, the CL was determined as 0.1052 L/h/kg and the MRT is 17.073 h. In addition, the “Solubility in acetone, ether, and chloroform” value in data set [2] (acetone, ether, chloroform) is recorded as “insoluble”. In data set [2] (methanol), the Solubility in methanol entry was “moderately soluble”. For the same molecule, the Solubility in water result in data set [2] (water) is given as “more than 100 mg/mL”.

For orientation: MRT means the average time that molecules of a dose stay in the body.
